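1) Cells in 96-well plates. 2) Compound, 48 h, 5 concentrations. 3) Linear interpolation between surrounding doses. 4) Unreached endpoint = highest concentration. GI50: concentration for 50% inhibition of growth.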 The source made the active and inactive calls. No stated cut-off is given here; in the data, active = GI50 up to about 1.1 µM and inactive = higher.
Columns and labels:
Assay in all cases: inhibition of tumour cell growth, NCI panel, 48 h
786-0 = tested on: 786-0
A498 = tested on: A498
A549 = tested on: A549
ACHN = tested on: ACHN
CAKI-1 = tested on: CAKI-1
CCRF-CEM = tested on: CCRF-CEM
COLO 205 = tested on: COLO 205
DU-145 = tested on: DU-145
EKVX = tested on: EKVX
HCC 2998 = tested on: HCC 2998
HCT-116 = tested on: HCT-116
HCT-15 = tested on: HCT-15
HL-60 = tested on: HL-60
HOP-62 = tested on: HOP-62
HOP-92 = tested on: HOP-92
HT-29 = tested on: HT-29
Hs-578T = tested on: Hs-578T
IGROV-1 = tested on: IGROV-1
KM12 = tested on: KM12
LOX IMVI = tested on: LOX IMVI
MDA-MB-435 = tested on: MDA-MB-435
MDA-N = tested on: MDA-N
MOLT-4 = tested on: MOLT-4
Malme-3M = tested on: Malme-3M
NCI-H226 = tested on: NCI-H226
NCI-H23 = tested on: NCI-H23
NCI-H460 = tested on: NCI-H460
NCI-H522 = tested on: NCI-H522
NCI/ADR-RES = tested on: NCI/ADR-RES
OVCAR-4 = tested on: OVCAR-4
OVCAR-5 = tested on: OVCAR-5
OVCAR-8 = tested on: OVCAR-8
PC-3 = tested on: PC-3
RPMI-8226 = tested on: RPMI-8226
RXF 393 = tested on: RXF 393
SF-268 = tested on: SF-268
SF-295 = tested on: SF-295
SF-539 = tested on: SF-539
SK-MEL-28 = tested on: SK-MEL-28
SK-MEL-2 = tested on: SK-MEL-2
SK-MEL-5 = tested on: SK-MEL-5
SK-OV-3 = tested on: SK-OV-3
SN12C = tested on: SN12C
SNB-19 = tested on: SNB-19
SNB-75 = tested on: SNB-75
SW-620 = tested on: SW-620
T47D = tested on: T47D
TK-10 = tested on: TK-10
U-251 = tested on: U-251
UACC-257 = tested on: UACC-257
UACC-62 = tested on: UACC-62
UO-31 = tested on: UO-31
K562 = tested on: K562
M14 = tested on: M14
MCF7 = tested on: MCF7
OVCAR-3 = tested on: OVCAR-3
SR = tested on: SR
MDA-MB-231 = tested on: MDA-MB-231

In the case of `CN(C)c1ccc(NN=C2SC(=N\c3ccccc3)/C(=N/c3ccccc3)S2)cc1`, the GI50 (786-0) is reported as > 100 µM (inactive), the GI50 (A498) is reported as 50 µM (inactive) and the GI50 (A549) is reported as 66.2 µM (inactive). The GI50 (ACHN) was > 100 µM (inactive), the GI50 (CAKI-1) was 76.4 µM (inactive) and the GI50 (CCRF-CEM) was 5.2 µM (inactive). For the same molecule, the GI50 (COLO 205) was 37.4 µM (inactive), the GI50 (DU-145) was > 100 µM (inactive) and the GI50 (EKVX) was 12.8 µM (inactive). The GI50 (HCC 2998) was 26.6 µM (inactive), the GI50 (HCT-116) was 14.9 µM (inactive) and the GI50 (HCT-15) was 9.31 µM. For the same molecule, the GI50 (HL-60) was 2.97 µM (inactive), the GI50 (HOP-62) was > 100 µM (inactive) and the GI50 (HOP-92) was 22.8 µM (inactive). For the same molecule, the GI50 (HT-29) was 15.5 µM (inactive), the GI50 (Hs-578T) was 57.4 µM (inactive) and the GI50 (IGROV-1) was > 100 µM (inactive). The GI50 (KM12) was 18.2 µM (inactive), the GI50 (LOX IMVI) was 22.1 µM (inactive) and the GI50 (MDA-MB-435) was 20.4 µM (inactive). The GI50 (MDA-N) was 20.3 µM (inactive), the GI50 (MOLT-4) was 47.2 µM (inactive) and the GI50 (Malme-3M) was 2.38 µM (inactive). The GI50 (NCI-H226) was > 100 µM (inactive), the GI50 (NCI-H23) was 12.1 µM (inactive) and the GI50 (NCI-H460) was 13 µM (inactive). The GI50 (NCI-H522) was 6.03 µM (inactive), the GI50 (NCI/ADR-RES) was 67.8 µM (inactive) and the GI50 (OVCAR-4) was 30.2 µM (inactive). For the same molecule, the GI50 (OVCAR-5) was 70.5 µM (inactive), the GI50 (OVCAR-8) was 64.9 µM (inactive) and the GI50 (PC-3) was > 100 µM (inactive). The GI50 (RPMI-8226) was > 100 µM (inactive), the GI50 (RXF 393) was 10 µM (inactive) and the GI50 (SF-268) was > 100 µM (inactive). The GI50 (SF-295) was > 100 µM (inactive), the GI50 (SF-539) was 53.7 µM (inactive) and the GI50 (SK-MEL-28) was > 100 µM (inactive). For the same molecule, the GI50 (SK-MEL-2) was 13.6 µM (inactive), the GI50 (SK-MEL-5) was 19.8 µM (inactive) and the GI50 (SK-OV-3) was > 100 µM (inactive). The GI50 (SN12C) was 43.4 µM (inactive), the GI50 (SNB-19) was > 100 µM (inactive) and the GI50 (SNB-75) was 27.3 µM (inactive). For the same molecule, the GI50 (SW-620) was 53 µM (inactive), the GI50 (T47D) was 12.3 µM (inactive) and the GI50 (TK-10) was > 100 µM (inactive). The GI50 (U-251) was > 100 µM (inactive), the GI50 (UACC-257) was 8.2 µM (inactive) and the GI50 (UACC-62) was 9.38 µM (inactive). For the same molecule, the GI50 (UO-31) was 52.4 µM (inactive).
With `Cc1cccc2oc3c(c(=O)c12)CC(O)C(C)(C)O3` (configuration not stated) the GI50 (786-0) was > 100 µM (inactive), the GI50 (A498) was > 100 µM (inactive) and the GI50 (A549) was > 100 µM (inactive). For the same molecule, the GI50 (ACHN) was > 100 µM (inactive), the GI50 (CAKI-1) was > 100 µM (inactive) and the GI50 (CCRF-CEM) was 28.2 µM (inactive). The GI50 (COLO 205) was > 100 µM (inactive), the GI50 (DU-145) was > 100 µM (inactive) and the GI50 (EKVX) was > 100 µM (inactive). For the same molecule, the GI50 (HCC 2998) was > 100 µM (inactive), the GI50 (HCT-116) was 45.8 µM (inactive) and the GI50 (HCT-15) was greater than 100 µM. For the same molecule, the GI50 (HL-60) was 23.9 µM (inactive), the GI50 (HOP-62) was > 100 µM (inactive) and the GI50 (HOP-92) was > 100 µM (inactive). For the same molecule, the GI50 (HT-29) was > 100 µM (inactive), the GI50 (Hs-578T) was > 100 µM (inactive) and the GI50 (IGROV-1) was > 100 µM (inactive). The GI50 (K562) was > 100 µM (inactive), the GI50 (KM12) was > 100 µM (inactive) and the GI50 (LOX IMVI) was 86.5 µM (inactive). The GI50 (M14) was > 100 µM (inactive), the GI50 (MCF7) was > 100 µM (inactive) and the GI50 (MDA-MB-435) was > 100 µM (inactive). For the same molecule, the GI50 (MDA-N) was > 100 µM (inactive), the GI50 (MOLT-4) was 38.5 µM (inactive) and the GI50 (Malme-3M) was > 100 µM (inactive). The GI50 (NCI-H226) was > 100 µM (inactive), the GI50 (NCI-H23) was > 100 µM (inactive) and the GI50 (NCI-H460) was > 100 µM (inactive). The GI50 (NCI-H522) was 35.9 µM (inactive), the GI50 (NCI/ADR-RES) was 79.1 µM (inactive) and the GI50 (OVCAR-3) was 99.1 µM (inactive). The GI50 (OVCAR-4) was > 100 µM (inactive), the GI50 (OVCAR-5) was > 100 µM (inactive) and the GI50 (PC-3) was > 100 µM (inactive). For the same molecule, the GI50 (RPMI-8226) was 74.1 µM (inactive), the GI50 (RXF 393) was 74 µM (inactive) and the GI50 (SF-268) was > 100 µM (inactive). For the same molecule, the GI50 (SF-295) was > 100 µM (inactive), the GI50 (SF-539) was > 100 µM (inactive) and the GI50 (SK-MEL-28) was > 100 µM (inactive). For the same molecule, the GI50 (SK-MEL-2) was > 100 µM (inactive), the GI50 (SK-MEL-5) was > 100 µM (inactive) and the GI50 (SK-OV-3) was > 100 µM (inactive). The GI50 (SN12C) was > 100 µM (inactive), the GI50 (SNB-19) was > 100 µM (inactive) and the GI50 (SR) was 56.1 µM (inactive). The GI50 (SW-620) was 51.6 µM (inactive), the GI50 (T47D) was > 100 µM (inactive) and the GI50 (TK-10) was > 100 µM (inactive). For the same molecule, the GI50 (U-251) was > 100 µM (inactive), the GI50 (UACC-257) was > 100 µM (inactive) and the GI50 (UACC-62) was > 100 µM (inactive). For the same molecule, the GI50 (UO-31) was > 100 µM (inactive).
With `COc1cc([C@@H]2c3cc4c(cc3[C@@H](NC(=O)NO)[C@H]3COC(=O)[C@H]23)OCO4)cc(OC)c1O` the GI50 (786-0) was 4.98 µM (inactive), the GI50 (A498) was 14 µM (inactive) and the GI50 (CAKI-1) was 6.31 µM (inactive). The GI50 (CCRF-CEM) was 12.7 µM (inactive), the GI50 (COLO 205) was 5.3 µM (inactive) and the GI50 (EKVX) was 7.45 µM (inactive). For the same molecule, the GI50 (HCT-116) was 4.84 µM (inactive), the GI50 (HCT-15) was 3.8 µM and the GI50 (HL-60) was 3.72 µM (inactive). For the same molecule, the GI50 (HOP-62) was 5.37 µM (inactive), the GI50 (HOP-92) was > 100 µM (inactive) and the GI50 (HT-29) was 5.19 µM (inactive). For the same molecule, the GI50 (IGROV-1) was 3.25 µM (inactive), the GI50 (K562) was 3.1 µM (inactive) and the GI50 (LOX IMVI) was 4.58 µM (inactive). The GI50 (MDA-MB-231) was 4.42 µM (inactive), the GI50 (MDA-MB-435) was 2.29 µM (inactive) and the GI50 (MDA-N) was 2.15 µM (inactive). The GI50 (NCI-H460) was 4.42 µM (inactive), the GI50 (NCI-H522) was > 100 µM (inactive) and the GI50 (NCI/ADR-RES) was 12.7 µM (inactive). For the same molecule, the GI50 (OVCAR-4) was > 100 µM (inactive), the GI50 (PC-3) was 4.91 µM (inactive) and the GI50 (RPMI-8226) was 4.03 µM (inactive). For the same molecule, the GI50 (SF-268) was 61.5 µM (inactive), the GI50 (SF-539) was 3.6 µM (inactive) and the GI50 (SK-MEL-2) was 4.38 µM (inactive). The GI50 (SN12C) was 4.71 µM (inactive), the GI50 (SNB-19) was > 100 µM (inactive) and the GI50 (SR) was 9.12 µM (inactive). The GI50 (SW-620) was 6.19 µM (inactive), the GI50 (T47D) was > 100 µM (inactive) and the GI50 (TK-10) was > 100 µM (inactive). For the same molecule, the GI50 (U-251) was 6.9 µM (inactive) and the GI50 (UACC-257) was > 100 µM (inactive).
